# Assay results reported in patent US20030229066A1, “Novel heterocyclic urea derivatives and their use as dopamine D3 receptor ligands” (priority 2001, published 2003).
# Where two headings read alike, the source gives them in different places.
# Key:
# [1] = target: T1, cloned human alpha-1A adrenergic receptors (α1a) (Homo sapiens, UniProt P35348); test: [3H]Prazosin binding to cloned human alpha-1A adrenergic receptors expressed in CHO cells; details: for Ki: Table II, pairs of 6-fluoro and 6-trifluoromethyl benzo[b]thiophenes, read-out: halpha1Ki
# T1 construct: expressed in transfected cells
# T1 sequence (P35348 1-466): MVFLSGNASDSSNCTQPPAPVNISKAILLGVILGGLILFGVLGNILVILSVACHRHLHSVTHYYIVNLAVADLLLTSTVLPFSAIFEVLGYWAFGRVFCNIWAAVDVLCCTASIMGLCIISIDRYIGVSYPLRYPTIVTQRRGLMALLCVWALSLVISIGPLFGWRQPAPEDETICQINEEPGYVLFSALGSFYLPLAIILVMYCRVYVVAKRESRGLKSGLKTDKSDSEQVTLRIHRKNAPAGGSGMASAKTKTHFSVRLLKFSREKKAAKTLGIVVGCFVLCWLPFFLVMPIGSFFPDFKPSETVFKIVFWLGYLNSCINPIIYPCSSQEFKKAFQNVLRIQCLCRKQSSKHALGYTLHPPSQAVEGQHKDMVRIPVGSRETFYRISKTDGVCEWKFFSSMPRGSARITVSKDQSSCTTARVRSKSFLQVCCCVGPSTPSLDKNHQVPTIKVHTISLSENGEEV
# Excerpt: [^3H]PRAZOSIN BINDING TO CLONED HUMAN ALPHA-1A ADRENERGIC RECEPTORS (α1a) EXPRESSED IN CHINESE HAMSTER OVARY CELLS (CHO)
# This in vitro assay is designed as a screen to identify compounds displaying a affinity for the human α1a adrenoceptor subtype expressed in the membrane fragments of CHO cells. The assay-measures the ability of the test compounds to displace [^3H]prazosin from α1a sites.
# Therefore, the binding of compounds to α1a adrenergic receptors is believed to be a good measure of a compound's potential to cause orthostatic hypotension and sedation as side effects. Prazosin is a potent antagonist of the human α1a-adrenoceptor subtype, which has been cloned and is expressed in the membrane fragments of CHO cells.
# The cloning of the human α1a cDNA was accomplished first by screening a human prostate cDNA library (Clontech), from which a portion of the coding region was obtained. This DNA fragment was then used to screen a human leukocyte genomic library (Clontech), and the rest of the coding sequence was obtained. Later these two fragments were spliced together. The entire coding sequence was then fully sequenced including matching PCR sequence with original genomic coding sequence, thus ensuring splice sites were joined correctly (Schwinn et al., 1995). Once sequenced, the gene was subcloned into the expression vector pcDNA3 (Invitrogen). Plasmid DNA was then used for transfection into CHO cells and G418 resistant clones were isolated. A clone expressing high levels of the hα1a receptor (as determined by mRNA and receptor binding data) was chosen and pharmacologically characterized.
# [7-methoxy-^3H]-Prazosin: 1.0 nM (NEN, NET-823) 70-87 Ci/mmol
# A: 50 mM Tris HCl; 0.1% ascorbate, pH 7.7 (incubation buffer)
# Total Binding=50 μl buffer A+50 μl [^3H]prazosin+100 μl membrane
# Nonsp. Bd.=50 μl 10 μM phentolamine+50 μl [^3H]prazosin+100 μl membrane
# Test Cpd.=50 μl compound+50 μl [^3H]prazosin+100 μl membrane
# Compounds to be evaluated are weighed out to yield a 10 mM stock solution in DMSO in a 24 well polystyrene plate. This is diluted to a 0.5 mM stock in dH2O. Serial dilutions in Buffer A are made from which 50 μl additions to the plate are made in duplicate in order to achieve the final concentrations desired. Typically, one 96 well plate is used to evaluate 11 compounds at 4 concentrations (10^−6-10^−9 M) in duplicate. Total binding and nonspecific binding are determined in quadruplicate. Usually one standard is run with each assay.
# [^3H]Prazosin is made up in Buffer A such that when 50 μl are added per well the final concentration is 1.0 nM in a final assay volume of 200 μl. The final concentration should be verified by running a sample in a scintillation counter prior to adding the [^3H]prazosin to the 96 well plate. Note: The radioactivity should be prepared just before the additions are made so that it is not allowed to sit on the bench for very long.
# Incubation & Filtration: Once buffer, compounds, [^3H]prazosin and membrane have been added (and mixed), the 96 well plates are incubated for 40 min at 37° C. and spaced 3-5 min apart. At 40 min, the plates are filtered using a Tomtec Automated Cell Harvester. Filtration is immediately followed by washes of ice cold Buffer B (total vol. ˜7 ml).
# Analysis of Results: Raw DPM and CPM data are captured on disk and are imported into one of several software packages (Graphpad Prism Ver 2.0, Excel) residing on the LAN. Specific binding is defined as the difference between total binding and the binding in the presence of 10 μM phentolamine. Total binding is less than 10% of the total added ligand. Software using one-site competition curve analysis is employed in the calculation of IC50 and Kj (Cheng-Prusoff equation, 1973). The top and bottom of the non-linear regression are held constant at 0% and 100% inhibition. The percent inhibition at each drug concentration is the mean of duplicate determinations.
# [2] = target: T2, cloned human dopamine D3 receptors (Homo sapiens, UniProt P35462); test: [N-Methyl-3H]Spiroperidol binding to cloned human dopamine D3 receptors
# T2 construct: expressed in transfected cells
# T2 sequence (P35462 whole entry): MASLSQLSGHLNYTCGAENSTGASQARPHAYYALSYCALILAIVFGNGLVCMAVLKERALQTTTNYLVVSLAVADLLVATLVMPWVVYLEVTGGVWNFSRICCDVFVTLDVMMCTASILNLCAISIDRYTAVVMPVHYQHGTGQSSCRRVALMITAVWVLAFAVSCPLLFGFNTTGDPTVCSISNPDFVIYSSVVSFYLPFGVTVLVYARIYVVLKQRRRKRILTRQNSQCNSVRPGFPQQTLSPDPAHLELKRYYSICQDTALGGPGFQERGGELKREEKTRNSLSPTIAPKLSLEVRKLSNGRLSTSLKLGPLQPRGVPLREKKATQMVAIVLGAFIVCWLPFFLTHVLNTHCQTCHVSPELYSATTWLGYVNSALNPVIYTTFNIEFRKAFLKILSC
# Procedure, shortened: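 Competition binding on homogenized CHO cells stably expressing human D3, with 0.4 nM [3H]NMSP (final), 37 °C for 30 min, filtration and scintillation counting. Nonspecific binding defined with 3 μM S(-)-eticlopride; typically eight test concentrations, 10^−5–10^−8 M final. Ki by Cheng-Prusoff from one-site competition fits, duplicate means.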
Ki [1] [µM],"Ki ([2]; Table III, read-out: d3Ki) [µM]",Ki [2] [µM],SMILES,other results
0.234,0.00631,–,O=C(NCCCCN1CCN(c2csc3cc(C(F)(F)F)ccc23)CC1)Nc1ccc(Br)cc1 [compound 816000],–
0.0836,0.00468,–,O=C(NCCCCN1CCN(c2csc3cc(C(F)(F)F)ccc23)CC1)NC1CCCCC1 [compound 816001],–
0.435,0.0125,–,O=C(NCCCCN1CCN(c2csc3cc(C(F)(F)F)ccc23)CC1)Nc1ccc(C(F)(F)F)cc1 [compound 816002],halpha1 % I ([1]; @1 μM): 30.2% Inh @1 μM
0.0567,0.00158,–,O=C(NCCCCN1CCN(c2csc3cc(C(F)(F)F)ccc23)CC1)Nc1cccc(F)c1 [compound 816003],–
0.0568,0.00254,–,O=C(NCCCCN1CCN(c2csc3cc(C(F)(F)F)ccc23)CC1)Nc1ccccc1 [compound 816005],–
–,–,0.0039,O=C(NC[C@@H]1C[C@H]1CN1CCN(c2csc3cc(C(F)(F)F)ccc23)CC1)Nc1ccc(Oc2ccccc2)cc1 [compound 832820],–
–,–,0.0452,CC(C)c1ccc(NC(=O)NC[C@@H]2C[C@H]2CN2CCN(c3csc4cc(C(F)(F)F)ccc34)CC2)cc1 [compound 832919],–
–,–,0.0182,COc1cccc(NC(=O)NC[C@@H]2C[C@H]2CN2CCN(c3csc4cc(C(F)(F)F)ccc34)CC2)c1 [compound 833203],–
–,–,0.00039,O=C(NCCCN1CCCCC1)NC[C@@H]1C[C@H]1CN1CCN(c2csc3cc(C(F)(F)F)ccc23)CC1 [compound 833258],–
–,–,0.000238,"O=C(NCCCn1ccnc1)NC[C@@H]1C[C@H]1CN1CCN(c2csc3cc(C(F)(F)F)ccc23)CC1 [compound 833306, 1-(3-Imidazol-1-yl-propyl)-3-{(1R, 2R )-2-[4-(6-trifluoromethyl-benzo[b]thiophen-3yl-)-piperazin-1-ylmethyl]-cyclopropylmethyl}-urea]",–
–,–,0.0291,C[C@H]1CC[C@H](NC(=O)NC[C@@H]2C[C@H]2CN2CCN(c3csc4cc(C(F)(F)F)ccc34)CC2)CC1 [compound 833356],–
–,–,0.0021,O=C(NCCCCN1CCN(c2csc3cc(C(F)(F)F)ccc23)CC1)Nc1ccc(C(=O)O)cc1 [compound 833724],–
–,–,0.000602,O=C(NCCCCN1CCN(c2csc3cc(C(F)(F)F)ccc23)CC1)Nc1ccc(CO)cc1 [compound 833725],–

# The remaining lines, values behind:
SMILES,Ki [1] [µM],"Ki ([2]; Table III, read-out: d3Ki) [µM]",Ki [2] [µM],other results
O=C(NCCCCN1CCN(c2csc3cc(F)ccc23)CC1)Nc1ccccc1 [compound 813581],0.0015,–,–,–
CC(=O)c1ccc(NC(=O)NCCCCN2CCN(c3csc4cc(F)ccc34)CC2)cc1 [compound 814932],0.0022,–,–,–
COc1ccc(NC(=O)NCCCCN2CCN(c3csc4cc(F)ccc34)CC2)cc1 [compound 814933],0.0018,–,–,–
CCCCc1ccc(NC(=O)NCCCCN2CCN(c3csc4cc(F)ccc34)CC2)cc1 [compound 814937],0.532,–,–,–
Cc1ccc(NC(=O)NCCCCN2CCN(c3csc4cc(F)ccc34)CC2)cc1 [compound 814941],0.0135,–,–,–
O=C(NCCCCN1CCN(c2csc3cc(F)ccc23)CC1)NC1CCCCC1 [compound 814945],0.0045,–,–,–
O=C(NCCCCN1CCN(c2csc3cc(F)ccc23)CC1)Nc1ccc(Br)cc1 [compound 814949],0.0182,–,–,–
O=C(NCCCCN1CCN(c2csc3cc(F)ccc23)CC1)Nc1ccc(C(F)(F)F)cc1 [compound 814952],0.0448,–,–,–
O=C(NCCCCN1CCN(c2csc3cc(F)ccc23)CC1)Nc1cccc(F)c1 [compound 814953],0.0035,–,–,–
CC(=O)c1ccc(NC(=O)NCCCCN2CCN(c3csc4cc(C(F)(F)F)ccc34)CC2)cc1 [compound 815993],0.0749,0.00226,–,–
COc1ccc(NC(=O)NCCCCN2CCN(c3csc4cc(C(F)(F)F)ccc34)CC2)cc1 [compound 815994],1.22,0.00887,–,halpha1 % I ([1]; @1 μM): 11.9& Inh @1 μM % Inh
CCCOc1ccc(NC(=O)NCCCCN2CCN(c3csc4cc(C(F)(F)F)ccc34)CC2)cc1 [compound 815995],–,0.0175,–,halpha1 % I ([1]; @10 μM): 42.4% Inh @10 μM
Cc1ccc(NC(=O)NCCCCN2CCN(c3csc4cc(C(F)(F)F)ccc34)CC2)cc1 [compound 815997],0.936,0.0045,–,halpha1 % I ([1]; @1 μM): 23.5% Inh @1 μM
